Results: ChEMBL document CHEMBL3808308, “Synergistic potentiation of (-)-lomaiviticin A cytotoxicity by the ATR inhibitor VE-821” (Bioorg Med Chem Lett, 2016)
The source made the active and inactive calls. No cut-off for these calls is given here.

Assays:
K562 [1] = assay: Potentiation of 0.25 nM (-)-lomaiviticin A-induced cytotoxicity against human K562 cells assessed as fraction ratio affected at 10 uM after 48 hrs by cell titer-glo luminescence assay; format: functional
K562 [2] = assay: Potentiation of 0.025 nM (-)-lomaiviticin A-induced cytotoxicity against human K562 cells assessed as combination index at 10 uM after 48 hrs by cell titer-glo luminescence assay; format: functional
[3] = Cytotoxicity against human K562 cells assessed as decrease in cell viability after 24 hrs by cell titer-glo luminescence assay; format: cell-based; details: read-out: ED50
K562 [4] = assay: Potentiation of 5 nM (-)-lomaiviticin A-induced cytotoxicity against human K562 cells assessed as combination index at 10 uM after 24 hrs by cell titer-glo luminescence assay; format: functional
K562 [5] = assay: Potentiation of 0.25 nM (-)-lomaiviticin A-induced cytotoxicity against human K562 cells assessed as combination index at 10 uM after 24 hrs by cell titer-glo luminescence assay; format: functional
K562 [6] = assay: Potentiation of 0.025 nM (-)-lomaiviticin A-induced cytotoxicity against human K562 cells assessed as fraction ratio affected at 10 uM after 48 hrs by cell titer-glo luminescence assay; format: functional
K562 [7] = assay: Cytotoxicity against human K562 cells assessed as decrease in cell viability up to 2.5 to 10 uM after 24 to 48 hrs by cell titer-glo luminescence assay; format: cell-based
K562 [8] = assay: Potentiation of 0.5 nM (-)-lomaiviticin A-induced cytotoxicity against human K562 cells assessed as combination index at 10 uM after 24 hrs by cell titer-glo luminescence assay; format: functional
K562 [9] = assay: Potentiation of 5 nM (-)-lomaiviticin A-induced cytotoxicity against human K562 cells assessed as fraction ratio affected at 10 uM after 24 hrs by cell titer-glo luminescence assay; format: functional
K562 [10] = assay: Potentiation of 0.25 nM (-)-lomaiviticin A-induced cytotoxicity against human K562 cells assessed as combination index at 10 uM after 48 hrs by cell titer-glo luminescence assay; format: functional
K562 [11] = assay: Potentiation of 2.5 nM (-)-lomaiviticin A-induced cytotoxicity against human K562 cells assessed as combination index at 10 uM after 24 hrs by cell titer-glo luminescence assay; format: functional
K562 [12] = assay: Potentiation of 0.25 nM (-)-lomaiviticin A-induced cytotoxicity against human K562 cells assessed as fraction ratio affected at 10 uM after 24 hrs by cell titer-glo luminescence assay; format: functional
K562 [13] = assay: Potentiation of 0.5 nM (-)-lomaiviticin A-induced cytotoxicity against human K562 cells assessed as fraction ratio affected at 10 uM after 48 hrs by cell titer-glo luminescence assay; format: functional
K562 [14] = assay: Potentiation of 5 nM (-)-lomaiviticin A-induced cytotoxicity against human K562 cells assessed as fraction ratio affected at 10 uM after 48 hrs by cell titer-glo luminescence assay; format: functional
K562 [15] = assay: Potentiation of 50 pM (-)-lomaiviticin A-induced cytotoxicity against human K562 cells assessed as decrease in cell viability at 10 uM after 48 hrs by cell titer-glo luminescence assay; format: functional
K562 [16] = assay: Cytotoxicity against human K562 cells assessed as decrease in cell viability up to 10 uM after 24 to 48 hrs by cell titer-glo luminescence assay; format: cell-based
K562 [17] = assay: Potentiation of 0.5 nM (-)-lomaiviticin A-induced cytotoxicity against human K562 cells assessed as combination index at 10 uM after 48 hrs by cell titer-glo luminescence assay; format: functional
K562 [18] = assay: Potentiation of 0.05 nM (-)-lomaiviticin A-induced cytotoxicity against human K562 cells assessed as combination index at 10 uM after 24 hrs by cell titer-glo luminescence assay; format: functional
K562 [19] = assay: Potentiation of 0.5 nM (-)-lomaiviticin A-induced cytotoxicity against human K562 cells assessed as fraction ratio affected at 10 uM after 24 hrs by cell titer-glo luminescence assay; format: functional
K562 [20] = assay: Induction of apoptosis in human K562 cells assessed as gammaH2AX/53BP1 levels at 10 uM after 48 hrs by DAPI staining based immunofluorescence microscopy; format: cell-based; details: k562, 48 h
K562 [21] = assay: Potentiation of 0.05 nM (-)-lomaiviticin A-induced cytotoxicity against human K562 cells assessed as fraction ratio affected at 10 uM after 24 hrs by cell titer-glo luminescence assay; format: functional
K562 [22] = assay: Induction of DNA double-strand breaks in human K562 cells assessed as median tail moment at 10 uM after 24 hrs by neutral comet assay in presence of 500 pM (-)-lomaiviticin A; format: functional
K562 [23] = assay: Potentiation of 5 nM (-)-lomaiviticin A-induced cytotoxicity against human K562 cells assessed as combination index at 10 uM after 48 hrs by cell titer-glo luminescence assay; format: functional
K562 [24] = assay: Potentiation of 2.5 nM (-)-lomaiviticin A-induced cytotoxicity against human K562 cells assessed as fraction ratio affected at 10 uM after 48 hrs by cell titer-glo luminescence assay; format: functional
K562 [25] = assay: Induction of apoptosis in human K562 cells assessed as gammaH2AX/53BP1 levels at 10 uM after 48 hrs by DAPI staining based immunofluorescence microscopy in presence of 25 to 250 pM (-)-lomaiviticin A; format: functional, cell-based
K562 [26] = assay: Potentiation of 500 pM (-)-lomaiviticin A-induced cytotoxicity against human K562 cells assessed as decrease in cell viability at 10 uM after 48 hrs by cell titer-glo luminescence assay; format: functional
K562 [27] = assay: Potentiation of 50 pM (-)-lomaiviticin A-induced cytotoxicity against human K562 cells assessed as decrease in cell viability at 10 uM after 24 hrs by cell titer-glo luminescence assay; format: functional
K562 [28] = assay: Potentiation of 0.05 nM (-)-lomaiviticin A-induced cytotoxicity against human K562 cells assessed as fraction ratio affected at 10 uM after 48 hrs by cell titer-glo luminescence assay; format: functional
K562 [29] = assay: Potentiation of 2.5 nM (-)-lomaiviticin A-induced cytotoxicity against human K562 cells assessed as fraction ratio affected at 10 uM after 24 hrs by cell titer-glo luminescence assay; format: functional
K562 [30] = assay: Potentiation of 0.025 nM (-)-lomaiviticin A-induced cytotoxicity against human K562 cells assessed as fraction ratio affected at 10 uM after 24 hrs by cell titer-glo luminescence assay; format: functional
K562 [31] = assay: Induction of DNA double-strand breaks in human K562 cells after 24 hrs by neutral comet assay in presence of (-)-lomaiviticin A; format: functional, cell-based
K562 [32] = assay: Potentiation of 0.05 nM (-)-lomaiviticin A-induced cytotoxicity against human K562 cells assessed as combination index at 10 uM after 48 hrs by cell titer-glo luminescence assay; format: functional
[33] = Cytotoxicity against human K562 cells assessed as decrease in cell viability after 48 hrs by cell titer-glo luminescence assay; format: cell-based; details: read-out: ED50
K562 [34] = assay: Potentiation of 0.025 nM (-)-lomaiviticin A-induced cytotoxicity against human K562 cells assessed as combination index at 10 uM after 24 hrs by cell titer-glo luminescence assay; format: functional
K562 [35] = assay: Potentiation of 2.5 nM (-)-lomaiviticin A-induced cytotoxicity against human K562 cells assessed as combination index at 10 uM after 48 hrs by cell titer-glo luminescence assay; format: functional
K562 [36] = assay: Potentiation of 2.5 nM (-)-lomaiviticin A-induced cytotoxicity against human K562 cells assessed as fraction ratio affected at 0.5 uM after 48 hrs by cell titer-glo luminescence assay; format: functional
K562 [37] = assay: Potentiation of 0.125 nM (-)-lomaiviticin A-induced cytotoxicity against human K562 cells assessed as fraction ratio affected at 0.025 uM after 48 hrs by cell titer-glo luminescence assay; format: functional
K562 [38] = assay: Potentiation of 2.5 nM (-)-lomaiviticin A-induced cytotoxicity against human K562 cells assessed as combination index at 0.5 uM after 48 hrs by cell titer-glo luminescence assay; format: functional
K562 [39] = assay: Potentiation of 0.025 nM (-)-lomaiviticin A-induced cytotoxicity against human K562 cells assessed as fraction ratio affected at 0.005 uM after 48 hrs by cell titer-glo luminescence assay; format: functional
K562 [40] = assay: Cytotoxicity against human K562 cells assessed as decrease in cell viability after 24 to 48 hrs by cell titer-glo luminescence assay; format: cell-based
K562 [41] = assay: Potentiation of 1.25 nM (-)-lomaiviticin A-induced cytotoxicity against human K562 cells assessed as combination index at 0.25 uM after 48 hrs by cell titer-glo luminescence assay; format: functional
K562 [42] = assay: Potentiation of 0.25 nM (-)-lomaiviticin A-induced cytotoxicity against human K562 cells assessed as fraction ratio affected at 0.05 uM after 48 hrs by cell titer-glo luminescence assay; format: functional
K562 [43] = assay: Potentiation of 7 nM (-)-lomaiviticin A-induced cytotoxicity against human K562 cells assessed as combination index at 1.4 uM after 48 hrs by cell titer-glo luminescence assay; format: functional
K562 [44] = assay: Potentiation of 0.125 nM (-)-lomaiviticin A-induced cytotoxicity against human K562 cells assessed as combination index at 0.025 uM after 48 hrs by cell titer-glo luminescence assay; format: functional
K562 [45] = assay: Potentiation of (-)-lomaiviticin A-induced cytotoxicity against human K562 cells assessed as (-)-lomaiviticin A ED50 at compound to (-)-lomaiviticin A ratio of 200:1 after 48 hrs by cell titer-glo luminescence assay (reference value: 0.23776 nM); format: functional; details: K562, 48 h, read-out: ED50 (the source's name)
K562 [46] = assay: Potentiation of 0.25 nM (-)-lomaiviticin A-induced cytotoxicity against human K562 cells assessed as combination index at 0.05 uM after 48 hrs by cell titer-glo luminescence assay; format: functional
K562 [47] = assay: Potentiation of 1.25 nM (-)-lomaiviticin A-induced cytotoxicity against human K562 cells assessed as fraction ratio affected at 0.25 uM after 48 hrs by cell titer-glo luminescence assay; format: functional
K562 [48] = assay: Potentiation of 0.025 nM (-)-lomaiviticin A-induced cytotoxicity against human K562 cells assessed as combination index at 0.005 uM after 48 hrs by cell titer-glo luminescence assay; format: functional
K562 [49] = assay: Potentiation of 7 nM (-)-lomaiviticin A-induced cytotoxicity against human K562 cells assessed as fraction ratio affected at 1.4 uM after 48 hrs by cell titer-glo luminescence assay; format: functional

In the case of `CS(=O)(=O)c1ccc(-c2cnc(N)c(C(=O)Nc3ccccc3)n2)cc1`, the Ratio (K562 [1]) is reported as 0.9206, the CI (K562 [2]) is reported as 0.2066 and the CC50 at 24 h [3] is reported as 449 µM. It also gave a CI (K562 [4]) of 0.6748, a CI (K562 [5]) of 0.06881 and a Ratio (K562 [6]) of 0.3737. For the same compound, the Activity (K562 [7]) was “Non-toxic”, the CI (K562 [8]) was 0.09717 and the Ratio (K562 [9]) was 0.9357. For the same compound, the CI (K562 [10]) was 0.1058, the CI (K562 [11]) was 0.4019 and the Ratio (K562 [12]) was 0.6516. The Ratio (K562 [13]) was 0.961, the Ratio (K562 [14]) was 0.9837 and the Activity (K562 [15]) was 40%. For the same compound, the Activity (K562 [16]) was less than 13%, the CI (K562 [17]) was 0.1448 and the CI (K562 [18]) was 0.0774. For the same compound, the Ratio (K562 [19]) was 0.814, the Activity (K562 [20]) was “Non-toxic” and the Ratio (K562 [21]) was 0.1819. For the same compound, the Activity (K562 [22]) was 34, the CI (K562 [23]) was 1.029 and the Ratio (K562 [24]) was 0.966. The Activity (K562 [25]) was “Active”, the Activity (K562 [26]) was 96% and the Activity (K562 [27]) was 18%. For the same compound, the Ratio (K562 [28]) was 0.6017, the Ratio (K562 [29]) was 0.8772 and the Ratio (K562 [30]) was 0.08806. The Activity (K562 [31]) was “Dose-dependent effect”, the CI (K562 [32]) was 0.1328 and the CC50 at 48 h [33] was 71 µM. It also gave a CI (K562 [34]) of 0.1138 and a CI (K562 [35]) of 0.6223.

Compound `Cn1c(=O)n(-c2ccc(C(C)(C)C#N)cc2)c2c3cc(-c4cnc5ccccc5c4)ccc3ncc21` [DACTOLISIB] has a Ratio (K562 [36]) of 0.9739, a Ratio (K562 [37]) of 0.4369 and a CI (K562 [38]) of 0.3901. The Ratio (K562 [39]) was 0.2836, the Activity (K562 [40]) was “Dose-dependent effect” and the CI (K562 [41]) was 0.3514. For the same compound, the Ratio (K562 [42]) was 0.6128, the CI (K562 [43]) was 0.3291 and the CI (K562 [44]) was 2.3513. It also gave an EC50 (K562 [45]) of 0.0202 µM, a CI (K562 [46]) of 0.8101 and a Ratio (K562 [47]) of 0.9514. It also gave a CI (K562 [48]) of 8.288, a Ratio (K562 [49]) of 0.9929 and a CC50 at 48 h [33] of 0.0489 µM.
